Assay results from ChEMBL document CHEMBL1201862, “PubChem BioAssay data set” (2004).
The source made the active and inactive calls.

How the values were obtained:
[1] = target: Glucose-6-phosphate 1-dehydrogenase (Homo sapiens, UniProt P11413); experiment: human G6PD enzyme inhibitors, dose response, selectivity assay for P. falciparum G6PD inhibitor project, biochemical, fluorescence (AID 504792); type: functional
[2] = target: Phosphoethanolamine/phosphocholine phosphatase (Homo sapiens, UniProt Q8TCT1); experiment: SAR assay for compounds that inhibit PHOSPHO1. [Related pubchem assays (depositor defined):AID1545, AID1565, AID1574]
[3] = HeLa cell cytotoxicity, dose response, cytotoxicity control for MgcRacGAP inhibitor project (AID 624300); type: functional
[4] = target: DNA dC->dU-editing enzyme APOBEC-3A (Homo sapiens, UniProt P31941); experiment: APOBEC3A DNA deaminase inhibitors, dose response, biochemical (AID 504722); type: functional
Phosphomannomutase 2 = Phosphomannomutase 2 (Homo sapiens, UniProt O15305); experiment: Counter screen SAR assay for PMM2 inhibitors via a fluorescence intensity assay. [Related pubchem assays (depositor defined):AID1545, AID1574]
[5] = target: DNA dC->dU-editing enzyme APOBEC-3G (Homo sapiens, UniProt Q9HC16); experiment: Dose Response confirmation of small molecule APOBEC3G DNA Deaminase Inhibitors via a fluorescence-based single-stranded DNA deaminase assay. [Related pubchem assays (depositor defined):AID493012, AID493028]; type: functional
T-cell = experiment: inhibitors of CD8+ T cell–vesicle binding, dose response, mouse 2C CD8+ T cells, flow cytometry (AID 485284); type: functional
[6] = target: T1, Alkaline phosphatase, tissue-nonspecific isozyme (Homo sapiens, UniProt P05186); experiment: human TNAP enzyme inhibitors, SAR follow-up, biochemical, luminescent, dose response (AID 1056)
T1 sequence (P05186 whole entry): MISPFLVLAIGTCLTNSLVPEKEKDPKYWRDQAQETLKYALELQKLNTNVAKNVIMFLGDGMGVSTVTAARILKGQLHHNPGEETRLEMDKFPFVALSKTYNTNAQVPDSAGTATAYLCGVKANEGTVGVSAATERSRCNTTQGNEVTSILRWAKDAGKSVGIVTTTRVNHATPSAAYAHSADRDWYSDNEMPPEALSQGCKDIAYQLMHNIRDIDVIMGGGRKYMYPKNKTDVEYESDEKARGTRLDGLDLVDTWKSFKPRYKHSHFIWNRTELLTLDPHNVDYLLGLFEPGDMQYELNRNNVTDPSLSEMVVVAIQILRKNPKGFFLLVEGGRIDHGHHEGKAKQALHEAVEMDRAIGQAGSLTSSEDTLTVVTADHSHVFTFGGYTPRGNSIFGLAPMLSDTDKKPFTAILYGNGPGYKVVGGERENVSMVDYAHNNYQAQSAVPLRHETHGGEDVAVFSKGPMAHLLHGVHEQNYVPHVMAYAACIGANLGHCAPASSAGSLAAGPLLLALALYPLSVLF

[7] = target: T2, Rac GTPase-activating protein 1 (Homo sapiens, UniProt Q9H0H5); experiment: MgcRacGAP GTPase-activating activity inhibitors, confirmation, biochemical, ADP Hunter fluorescence, primary and confirmatory (AID 624330); type: functional
T2 sequence (Q9H0H5 whole entry): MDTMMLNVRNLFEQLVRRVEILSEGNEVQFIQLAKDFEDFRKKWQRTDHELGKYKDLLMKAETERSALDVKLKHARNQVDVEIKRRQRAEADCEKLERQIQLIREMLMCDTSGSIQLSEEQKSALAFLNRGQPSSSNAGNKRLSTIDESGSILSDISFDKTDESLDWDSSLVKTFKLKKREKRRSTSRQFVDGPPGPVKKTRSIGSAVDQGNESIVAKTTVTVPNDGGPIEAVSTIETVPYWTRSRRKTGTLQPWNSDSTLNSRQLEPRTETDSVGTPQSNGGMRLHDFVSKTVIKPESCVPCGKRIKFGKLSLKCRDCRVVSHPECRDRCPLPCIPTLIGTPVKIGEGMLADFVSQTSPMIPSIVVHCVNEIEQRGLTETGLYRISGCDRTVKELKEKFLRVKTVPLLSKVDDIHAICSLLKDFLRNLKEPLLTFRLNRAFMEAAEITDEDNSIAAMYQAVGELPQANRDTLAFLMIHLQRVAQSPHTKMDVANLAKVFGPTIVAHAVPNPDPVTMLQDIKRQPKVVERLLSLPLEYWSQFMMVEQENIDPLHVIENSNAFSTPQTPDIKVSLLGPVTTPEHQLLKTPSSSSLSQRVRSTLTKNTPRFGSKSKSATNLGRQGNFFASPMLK

[8] = cytotoxicity in NIH/3T3 mouse fibroblasts, dose response, cytotoxicity control, cell-based, mouse embryonic fibroblasts, dry powder, set 2 (AID 493247); type: functional; conditions: Fibroblast
Trypanosoma cruzi = experiment: growth inhibition of intracellular Trypanosoma cruzi, dose response, cell-based, plate reader, dry powder, set 3 (AID 493197); type: functional
[9] = target: T3, Kappa-type opioid receptor (Homo sapiens, UniProt P41145); experiment: SAR analysis of Antagonists of the Kappa Opioid Receptor (KOR) using an Image-Based Assay - Set 4. [Related pubchem assays (depositor defined):AID1777, AID1785]; type: functional
[10] = target: T3, Kappa-type opioid receptor; experiment: SAR analysis of small molecule antagonists of the kappa opioid receptor via a luminescent beta-arrestin assay - Set 4. [Related pubchem assays (depositor defined):AID1777, AID1778, AID1785, AID1786, AID1966, AID2133, AID2136, AID2285]; type: functional
[11] = target: Delta-type opioid receptor (Homo sapiens, UniProt P41143); experiment: SAR Analysis of Antagonists of the DOR Receptor using an Image-Based Assay - Set 3. [Related pubchem assays (depositor defined):AID1777, AID1785]; type: functional;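 also: U2OS cells expressing DOR1 and beta-arrestin GFP stimulated with 100 nM SNC80; imaging of GFP-tagged beta-arrestin moving into spots after receptor activation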
Mu-type opioid receptor = Mu-type opioid receptor (Homo sapiens, UniProt P35372); experiment: SAR Analysis of Antagonists of the MOR Receptor using an Image-Based Assay - Set 3. [Related pubchem assays (depositor defined):AID1777, AID1785, AID1786, AID1966, AID2133, AID2136, AID2284, AID2285, AID2420]; type: functional
[12] = target: T3, Kappa-type opioid receptor; experiment: SAR analysis of small molecule antagonists of the kappa opioid receptor via a luminescent beta-arrestin assay - Set 6. [Related pubchem assays (depositor defined):AID1777, AID1778, AID1785, AID1786, AID1966, AID2133, AID2136, AID2285]; type: functional
Hexokinase = Hexokinase (Trypanosoma brucei, UniProt Q38C41); experiment: Confirmation assay for inhibitors of Trypanosoma brucei hexokinase 1-Analogue-first series. [Related pubchem assays (depositor defined):AID1430, AID1632, AID2516, AID2560, AID2579, AID2600, AID449725, AID492951]; type: functional
[13] = target: T4, Tyrosine-protein phosphatase non-receptor type 7 (Homo sapiens, UniProt P35236); experiment: SAR analysis of chemical inhibitors of HePTP using a Fluorescent assay - Set 2. [Related pubchem assays (depositor defined):AID1059, AID1077, AID1661, AID2085, AID521]; type: functional
T4 sequence (P35236 whole entry): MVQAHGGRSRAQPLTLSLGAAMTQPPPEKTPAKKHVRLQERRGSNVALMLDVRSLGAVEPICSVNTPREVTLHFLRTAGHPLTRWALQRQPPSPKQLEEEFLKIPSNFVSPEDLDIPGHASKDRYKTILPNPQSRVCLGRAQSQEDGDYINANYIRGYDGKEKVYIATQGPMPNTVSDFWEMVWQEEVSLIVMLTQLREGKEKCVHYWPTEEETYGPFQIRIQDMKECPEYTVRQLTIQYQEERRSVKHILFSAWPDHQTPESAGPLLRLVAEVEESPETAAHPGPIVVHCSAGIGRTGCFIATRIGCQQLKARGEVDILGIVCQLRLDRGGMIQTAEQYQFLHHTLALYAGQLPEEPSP

[14] = target: Dual specificity protein phosphatase 3 (Homo sapiens, UniProt P51452); experiment: SAR VHR1 Fluorescent Assay for In Vitro dose response studies Set 2. [Related pubchem assays (depositor defined):AID1654, AID1661, AID1878]; type: functional
[15] = target: Sphingosine 1-phosphate receptor 4 (Homo sapiens, UniProt O95977); experiment: S1P4 receptor agonists, human, late-stage follow-up, cell-based, fluorescence, synthesized compounds (AID 463107); type: functional
Chain of Sphingosine 1-phosphate receptor 4 (O95977 whole entry): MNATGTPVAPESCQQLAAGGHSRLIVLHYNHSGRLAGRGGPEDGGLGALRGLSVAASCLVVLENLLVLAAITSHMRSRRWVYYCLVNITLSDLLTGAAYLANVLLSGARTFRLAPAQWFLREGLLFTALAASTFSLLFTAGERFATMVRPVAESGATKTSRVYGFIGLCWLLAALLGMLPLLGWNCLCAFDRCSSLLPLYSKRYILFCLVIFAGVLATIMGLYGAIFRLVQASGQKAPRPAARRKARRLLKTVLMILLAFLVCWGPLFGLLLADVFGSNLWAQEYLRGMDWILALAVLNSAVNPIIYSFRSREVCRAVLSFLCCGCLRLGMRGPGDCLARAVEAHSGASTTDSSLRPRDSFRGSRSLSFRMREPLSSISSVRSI

T3 sequence (P41145 whole entry): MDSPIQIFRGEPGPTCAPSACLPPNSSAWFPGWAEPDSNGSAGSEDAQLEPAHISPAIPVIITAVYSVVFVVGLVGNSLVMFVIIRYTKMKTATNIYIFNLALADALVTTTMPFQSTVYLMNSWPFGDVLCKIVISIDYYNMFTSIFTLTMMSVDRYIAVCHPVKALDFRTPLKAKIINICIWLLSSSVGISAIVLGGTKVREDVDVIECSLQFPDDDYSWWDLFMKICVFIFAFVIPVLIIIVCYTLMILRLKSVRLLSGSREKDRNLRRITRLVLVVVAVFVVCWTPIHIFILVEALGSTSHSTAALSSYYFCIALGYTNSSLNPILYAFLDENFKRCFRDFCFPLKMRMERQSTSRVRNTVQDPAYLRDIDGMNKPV
Chain of Dual specificity protein phosphatase 3 (P51452 whole entry): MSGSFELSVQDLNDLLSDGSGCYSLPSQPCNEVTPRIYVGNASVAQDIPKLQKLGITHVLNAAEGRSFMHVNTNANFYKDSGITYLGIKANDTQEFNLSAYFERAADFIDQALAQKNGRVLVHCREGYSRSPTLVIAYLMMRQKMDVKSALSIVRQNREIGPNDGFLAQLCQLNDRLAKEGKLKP
Chain of Phosphomannomutase 2 (O15305 whole entry): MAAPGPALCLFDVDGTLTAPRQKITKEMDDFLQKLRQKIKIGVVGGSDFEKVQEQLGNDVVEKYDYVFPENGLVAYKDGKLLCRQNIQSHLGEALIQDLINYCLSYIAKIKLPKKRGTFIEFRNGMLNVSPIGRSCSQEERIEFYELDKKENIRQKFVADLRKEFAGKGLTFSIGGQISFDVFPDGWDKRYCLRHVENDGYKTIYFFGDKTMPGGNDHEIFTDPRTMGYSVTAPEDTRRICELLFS
Chain of DNA dC->dU-editing enzyme APOBEC-3G (Q9HC16 whole entry): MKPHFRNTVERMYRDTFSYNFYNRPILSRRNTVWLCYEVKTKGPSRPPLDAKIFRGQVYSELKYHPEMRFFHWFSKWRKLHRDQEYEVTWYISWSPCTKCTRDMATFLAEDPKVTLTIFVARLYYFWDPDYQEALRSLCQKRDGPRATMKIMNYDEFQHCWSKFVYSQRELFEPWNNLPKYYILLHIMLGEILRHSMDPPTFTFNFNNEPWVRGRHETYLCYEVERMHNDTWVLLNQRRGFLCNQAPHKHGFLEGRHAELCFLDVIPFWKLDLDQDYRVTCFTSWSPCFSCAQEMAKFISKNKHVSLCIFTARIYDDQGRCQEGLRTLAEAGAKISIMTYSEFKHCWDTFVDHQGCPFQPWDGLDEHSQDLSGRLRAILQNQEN
Chain of Glucose-6-phosphate 1-dehydrogenase (P11413 whole entry): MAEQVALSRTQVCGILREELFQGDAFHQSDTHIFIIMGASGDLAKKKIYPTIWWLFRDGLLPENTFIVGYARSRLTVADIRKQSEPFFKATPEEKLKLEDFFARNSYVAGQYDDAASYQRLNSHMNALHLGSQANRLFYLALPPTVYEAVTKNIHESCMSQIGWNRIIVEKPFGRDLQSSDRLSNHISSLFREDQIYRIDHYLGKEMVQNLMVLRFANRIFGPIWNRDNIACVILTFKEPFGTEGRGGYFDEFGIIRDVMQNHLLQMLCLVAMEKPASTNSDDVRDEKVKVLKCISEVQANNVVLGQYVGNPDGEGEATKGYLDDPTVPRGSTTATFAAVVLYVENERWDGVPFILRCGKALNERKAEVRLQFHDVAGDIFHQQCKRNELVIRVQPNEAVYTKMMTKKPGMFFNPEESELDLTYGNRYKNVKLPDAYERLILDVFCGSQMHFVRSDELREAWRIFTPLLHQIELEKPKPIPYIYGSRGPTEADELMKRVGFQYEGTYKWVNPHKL
Chain of DNA dC->dU-editing enzyme APOBEC-3A (P31941 whole entry): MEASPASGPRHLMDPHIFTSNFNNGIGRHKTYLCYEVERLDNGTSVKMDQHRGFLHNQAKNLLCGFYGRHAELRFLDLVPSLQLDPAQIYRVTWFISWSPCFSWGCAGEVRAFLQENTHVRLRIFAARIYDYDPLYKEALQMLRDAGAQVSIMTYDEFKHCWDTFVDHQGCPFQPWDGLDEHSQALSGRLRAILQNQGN
Chain of Delta-type opioid receptor (P41143 whole entry): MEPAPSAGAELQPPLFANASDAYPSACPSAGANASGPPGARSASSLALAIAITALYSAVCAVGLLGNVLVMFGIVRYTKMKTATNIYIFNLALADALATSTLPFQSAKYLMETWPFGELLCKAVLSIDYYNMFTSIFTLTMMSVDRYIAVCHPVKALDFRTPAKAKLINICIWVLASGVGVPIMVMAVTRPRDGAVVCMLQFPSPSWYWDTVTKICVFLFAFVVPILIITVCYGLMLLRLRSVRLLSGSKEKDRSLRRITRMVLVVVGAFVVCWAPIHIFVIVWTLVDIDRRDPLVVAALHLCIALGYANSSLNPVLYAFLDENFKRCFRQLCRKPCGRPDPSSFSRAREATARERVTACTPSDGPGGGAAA
Chain of Mu-type opioid receptor (P35372 whole entry): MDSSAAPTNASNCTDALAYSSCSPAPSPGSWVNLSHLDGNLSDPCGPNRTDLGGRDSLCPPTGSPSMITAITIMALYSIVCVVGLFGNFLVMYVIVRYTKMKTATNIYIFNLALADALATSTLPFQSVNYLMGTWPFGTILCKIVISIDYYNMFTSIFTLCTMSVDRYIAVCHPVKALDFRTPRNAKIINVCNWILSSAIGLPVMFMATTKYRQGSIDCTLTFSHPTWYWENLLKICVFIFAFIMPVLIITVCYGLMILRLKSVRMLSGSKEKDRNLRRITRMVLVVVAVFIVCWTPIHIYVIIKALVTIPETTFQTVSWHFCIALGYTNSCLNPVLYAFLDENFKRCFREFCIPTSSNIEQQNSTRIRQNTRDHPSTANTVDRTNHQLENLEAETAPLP
Chain of Phosphoethanolamine/phosphocholine phosphatase (Q8TCT1 whole entry): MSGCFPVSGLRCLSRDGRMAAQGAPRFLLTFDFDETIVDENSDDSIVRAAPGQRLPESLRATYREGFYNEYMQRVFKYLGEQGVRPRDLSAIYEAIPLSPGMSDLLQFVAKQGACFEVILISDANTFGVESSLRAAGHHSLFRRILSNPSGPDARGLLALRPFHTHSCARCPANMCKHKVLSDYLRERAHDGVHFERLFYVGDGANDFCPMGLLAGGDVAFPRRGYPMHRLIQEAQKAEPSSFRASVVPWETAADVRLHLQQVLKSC
Chain of Hexokinase (Q38C41 whole entry): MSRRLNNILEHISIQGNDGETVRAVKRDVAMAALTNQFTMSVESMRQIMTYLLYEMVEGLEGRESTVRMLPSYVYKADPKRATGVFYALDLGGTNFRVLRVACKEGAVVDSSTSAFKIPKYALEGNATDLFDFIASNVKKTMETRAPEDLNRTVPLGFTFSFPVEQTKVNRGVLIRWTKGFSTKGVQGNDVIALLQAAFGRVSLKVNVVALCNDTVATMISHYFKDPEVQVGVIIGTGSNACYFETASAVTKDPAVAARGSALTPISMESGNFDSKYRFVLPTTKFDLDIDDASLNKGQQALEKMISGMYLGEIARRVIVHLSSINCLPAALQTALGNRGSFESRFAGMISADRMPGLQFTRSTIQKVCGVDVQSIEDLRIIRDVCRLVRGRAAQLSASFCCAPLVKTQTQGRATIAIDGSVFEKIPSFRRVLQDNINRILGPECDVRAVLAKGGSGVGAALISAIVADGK

SMILES: Cc1ccc(C)c(-n2sc3ccc(F)cc3c2=O)c1
- IC50 [1]: 11.3 µM (active)
- IC50 [2]: 7.43 µM (inactive)
- CC50 [3]: 67.5 µM (active)
- IC50 [4]: > 100 µM (inactive)
- IC50 (Phosphomannomutase 2): 31.3 µM (active)
- IC50 [5]: 13.5 µM (active)
- EC50 (T-cell): 3.62 µM (active)
- IC50 [6]: > 100 µM (inactive)
- IC50 [7]: 34 µM (active)

SMILES: O=C(CCc1ccccc1)N/N=C/c1ccc([N+](=O)[O-])o1
- AC50 [8]: 26.3 µM (active)
- AC50 (Trypanosoma cruzi): 0.335 µM (active)

SMILES: CCCCc1ccc(S(=O)(=O)NCc2ccc(C(=O)NCCN(Cc3ccccc3)C(C)C)cc2)cc1
- IC50 [9]: 0.168 µM (active)
- IC50 [10]: 3.01 µM (active)
- IC50 [11]: > 32 µM (inactive)
- IC50 (Mu-type opioid receptor): > 32 µM (inactive)
- IC50 [12]: 4.73 µM (active)

SMILES: O=c1c(Br)csn1-c1ccc(Br)cc1
- IC50 (Hexokinase): 11.1 µM (active)

SMILES: COc1ccc(OC)c(C(=S)NCc2cccc(F)c2)c1
- IC50 [13]: 64 µM (active)
- IC50 [14]: 65.2 µM (active)

SMILES: Cc1ccc(OCCOc2ccccc2C(F)(F)F)c([N+](=O)[O-])n1
- EC50 [15]: > 50 µM (inactive)
